Assay results taken from PubChem BioAssay (NCI).
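Compound exposure: 48 hours, 5 concentrations, 96-well plates. GI50 is the concentration that inhibits growth by half. TGI: total growth inhibition.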

Tests used:
Test in all cases: DTP human tumour cell line panel, 48 h
A498 renal = test system: A498 renal
CCRF-CEM leukemia = test system: CCRF-CEM leukemia
LOX IMVI melanoma = test system: LOX IMVI melanoma
MALME-3M melanoma = test system: MALME-3M melanoma
OVCAR-4 ovarian = test system: OVCAR-4 ovarian
OVCAR-5 ovarian = test system: OVCAR-5 ovarian
RXF 393 renal = test system: RXF 393 renal
SF-268 CNS = test system: SF-268 CNS
SF-539 CNS = test system: SF-539 CNS
SW-620 colon = test system: SW-620 colon

Row | Compound | GI50 (A498 renal) [µM] | TGI (A498 renal) [µM] | GI50 (CCRF-CEM leukemia) [µM] | TGI (CCRF-CEM leukemia) [µM] | GI50 (LOX IMVI melanoma) [µM] | TGI (LOX IMVI melanoma) [µM] | GI50 (MALME-3M melanoma) [µM] | TGI (MALME-3M melanoma) [µM] | GI50 (OVCAR-4 ovarian) [µM] | TGI (OVCAR-4 ovarian) [µM] | GI50 (OVCAR-5 ovarian) [µM] | TGI (OVCAR-5 ovarian) [µM] | GI50 (RXF 393 renal) [µM] | TGI (RXF 393 renal) [µM] | GI50 (SF-268 CNS) [µM] | TGI (SF-268 CNS) [µM] | GI50 (SF-539 CNS) [µM] | TGI (SF-539 CNS) [µM] | GI50 (SW-620 colon) [µM] | TGI (SW-620 colon) [µM]
1 | NC(=NCCCOc1ccc(Cl)cc1)Nc1ccc(Cl)cc1 | 1.92 | 5.43 | 2.11 | 6.74 | 1.6 | 2.98 | 1.95 | 4.14 | 2.3 | 7.9 | 2.02 | 6.56 | 1.86 | 6.97 | 3.1 | 13 | 1.83 | 3.72 | 1.94 | 5.59
2 | COc1cc2c(cc1OCCOS(C)(=O)=O)N=C[C@@H]1CCCN1C2=O | 17.1 | 48.7 | 14.5 | 54.9 | 15.7 | 29.5 | 13.6 | 31.6 |  | 58.5 |  |  |  | > 100 |  | > 100 | 18.6 | 47.2 | 14.6 | 38.4
3 | CC(C)C1OC(=O)C=C1Sc1ccccc1 (stereo not given) |  | > 100 |  | > 100 |  | > 100 |  | > 100 |  | > 100 |  | > 100 |  | > 100 |  | > 100 |  | > 100 |  | > 100
